Assay results reported in patent publication US20060264419A1 (priority 2003, published 2006).

These molecules were tested against 5-HT2A receptors (Rattus norvegicus, UniProt P14842) (assay: in-vitro affinity to 5-HT2A receptors, displacement of [3H]ketanserine (Example A1)). Settings: read-out: HT2A IC50.
Type: binding
Description: The 5-HT2A receptors are exposed both to [^3H]ketanserine (a substance which is known for its affinity to the receptor) and also to the test compound. The decrease in the affinity of [^3H]ketanserine to the receptor is an indication of the affinity of the test substance to the 5-HT2A receptor.

Chain of 5-HT2A receptors (P14842 whole entry): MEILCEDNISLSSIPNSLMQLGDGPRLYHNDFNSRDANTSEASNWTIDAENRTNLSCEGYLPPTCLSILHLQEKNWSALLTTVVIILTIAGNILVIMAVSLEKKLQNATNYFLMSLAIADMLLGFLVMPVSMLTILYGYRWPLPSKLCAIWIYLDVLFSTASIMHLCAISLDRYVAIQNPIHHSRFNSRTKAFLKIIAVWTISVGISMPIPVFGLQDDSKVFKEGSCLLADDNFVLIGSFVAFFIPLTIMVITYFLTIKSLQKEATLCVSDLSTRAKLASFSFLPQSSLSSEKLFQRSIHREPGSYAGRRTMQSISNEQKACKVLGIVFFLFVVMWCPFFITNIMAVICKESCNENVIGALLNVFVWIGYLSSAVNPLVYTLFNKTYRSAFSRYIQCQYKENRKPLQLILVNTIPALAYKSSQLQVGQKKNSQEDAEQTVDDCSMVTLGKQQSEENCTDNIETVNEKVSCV

IC50	Structure (SMILES)
280 nM	Fc1ccccc1-c1c(CN2CCN3CCc4ccccc4C3C2)cnn1-c1ccc(-c2ccccc2)cc1 (centres unmarked) [Example 1031, 2-[1-Biphenyl-4-yl-5-(2-fluorophenyl)-1H-pyrazol-4-ylmethyl]-1,3,4,6,7,11b-hexahydro-2H-pyrazino[2,1-a]isoquinoline]
86 nM	CN1CCN(Cc2cnn(-c3ccc(-c4cc(Cl)cc(Cl)c4)cc3)c2-c2ccccc2F)CC1 [Example 973, 1-[1-(3′,5′-Dichlorobiphenyl-4-yl)-5-(2-fluoro-phenyl)-1H-pyrazol-4-ylmethyl]-4-methyl-piperazine]
56 nM	COc1ccc(-c2c(CN3CCN(CCN4CCCC4)CC3)cnn2-c2ccc(-c3ccc(F)cc3)cc2)cc1 [Example 954, 1-[1-(4′-Fluorobiphenyl-4-yl)-5-(4-methoxy-phenyl)-1H-pyrazol-4-ylmethyl]-4-(2-pyrroli-din-1-ylethyl)piperazine]
100 nM	CC1CN(Cc2cnn(-c3ccc(-c4ccccc4)cc3)c2-c2ccccc2F)CC(C)N1 (centres unmarked) [Example 979, 1-[1-Biphenyl-4-yl-5-(2-fluorophenyl)-1H-pyrazol-4-ylmethyl]-3,5-dimethylpiperazine]
56 nM	CN1CCN(Cc2cnn(-c3ccc(-c4ccc(F)cc4F)cc3)c2-c2ccccc2F)CC1 [Example 955, 1-[1-(2′,4′-Difluorobiphenyl-4-yl)-5-(2-fluoro-phenyl)-1H-pyrazol-4-ylmethyl]-4-methyl-piperazine]
180 nM	Fc1ccc(F)c(-c2ccc(-n3ncc(CNc4cc[nH]n4)c3-c3ccccc3F)cc2)c1 [Example 1005, [1-(2′,5′-Difluorobiphenyl-4-yl)-5-(2-fluoro-phenyl)-1H-pyrazol-4-ylmethyl]-(1H-pyrazol-3-yl)amine]
320 nM	CCN(Cc1ccccc1)Cc1cnn(-c2ccc(-c3ccccc3)cc2)c1-c1ccccc1F [Example 1039, Benzyl-[1-biphenyl-4-yl-5-(2-fluoro-phenyl)-1H-pyrazol-4-ylmethyl]ethylamine]
170 nM	CCOC(=O)N1CCC(N(C)Cc2cnn(-c3ccc(-c4ccccc4)cc3)c2-c2ccccc2F)CC1 [Example 999, Ethyl 4-{[1-biphenyl-4-yl-5-(2-fluorophenyl)-1H-pyrazol-4-ylmethyl]methylamino}piperidine-1-carboxylate]
210 nM	COC(=O)CCNCc1cnn(-c2ccc(-c3ccccc3)cc2)c1-c1ccccc1F [Example 1014, Methyl 3-{[1-biphenyl-4-yl-5-(2-fluoro-phenyl)-1H-pyrazol-4-ylmethyl]amino}propionate]

The next lines start with the molecule.

Structure (SMILES)	IC50
CCC1(O)CCN(Cc2cnn(-c3ccc(-c4ccccc4)cc3)c2-c2ccccc2F)CC1 [Example 1033, 1-[1-Biphenyl-4-yl-5-(2-fluorophenyl)-1H-pyrazol-4-ylmethyl]-4-ethylpiperidin-4-ol]	280 nM
Fc1ccccc1-c1c(CNC2CN3CCC2CC3)cnn1-c1ccc(-c2ccccc2)cc1 (centres unmarked) [Example 991, (1-Azabicyclo[2.2.2]oct-3-yl)-[1-biphenyl-4-yl-5-(2-fluorophenyl)-1H-pyrazol-4-ylmethyl]-amine]	140 nM
CN1CCN(Cc2cnn(-c3ccc(-c4ccc(F)cc4)cc3)c2-c2cccc(F)c2)CC1 [Example 911, 1-[1-(4′-Fluorobiphenyl-4-yl)-5-(3-fluoro-phenyl)-1H-pyrazol-4-ylmethyl]-4-methyl-piperazine]	19 nM
O=C(CN1CCN(Cc2cnn(-c3ccc(-c4ccccc4)cc3)c2-c2ccccc2F)CC1)N1CCCC1 [Example 985, 2-{4-[1-Biphenyl-4-yl-5-(2-fluoro-phenyl)-1H-pyrazol-4-ylmethyl]piperazin-1-yl}-1-pyrrolidin-1-ylethanone]	122 nM
OCCN1CCN(Cc2cnn(-c3ccc(-c4ccccc4)cc3)c2-c2ccccc2F)CC1 [Example 1032, 2-{4-[1-Biphenyl-4-yl-5-(2-fluoro-phenyl)-1H-pyrazol-4-ylmethyl]piperazin-1-yl}ethanol]	280 nM
CN1CCN(NCc2cnn(-c3ccc(-c4ccc(F)cc4)cc3)c2-c2ccccc2)CC1 [Example 974, [1-(4′-Fluorobiphenyl-4-yl)-5-phenyl-1H-pyrazol-4-ylmethyl]-(4-methyl-piperazin-1-yl)amine]	87 nM

Same assay, conditions: target not given; description names affinity to 5-HT2A receptors; read-out: IC50

IC50	Structure (SMILES)
590 nM	Nc1ccc(NCc2cnn(-c3ccc(-c4ccc(F)cc4)nc3)c2-c2ccccc2F)cn1 [(194), N^5-{5-(2-Fluorophenyl)-1-[6-(4-fluorophenyl)pyridin-3-yl]-1H-pyrazol-4-ylmethyl}pyridine-2,5-diamine]
170 nM	CCOC(=O)N1CCC(N(C)Cc2cnn(-c3ccc(-c4ccccc4)cc3)c2-c2ccccc2F)CC1 [(110), Ethyl 4-{[1-biphenyl-4-yl-5-(2-fluorophenyl)-1H-pyrazol-4-ylmethyl]methylamino}piperidine-1-carboxylate]
820 nM	CN1CCN(C(=O)c2cnn(-c3ccc(-c4ccccc4)cc3)c2-c2ccccc2F)CC1 [(52), 1-[1-Biphenyl-4-yl-5-(2-fluorophenyl)-1H-pyrazol-4-yl]-1-(4-methylpiperazin-1-yl)methanone]
150 nM	Fc1ccccc1-c1c(CN2CCNCC2)cnn1-c1ccc(-c2ccccc2)nc1 [(56), 1-[5-(2-Fluorophenyl)-1-(6-phenylpyridin-3-yl)-1H-pyrazol-4-ylmethyl]piperazine]
120 nM	Fc1ccccc1-c1cc(CN2CCCCC2)nn1-c1ccc(-c2ccccc2)cc1 [(43), 1-[1-Biphenyl-4-yl-5-(2-fluorophenyl)-1H-pyrazol-3-ylmethyl]-piperidine]
260 nM	CN1CCN(Cc2cnn(-c3ccc(-c4ccccc4)cc3)c2C(F)(F)F)CC1 [(67)]
1100 nM	Fc1ccccc1-c1cc(CN2CCOCC2)nn1-c1ccc(-c2ccccc2)cc1 [(44), 4-[1-Biphenyl-4-yl-5-(2-fluorophenyl)-1H-pyrazol-3-ylmethyl]-morpholine]
240 nM	Cc1cc(CNCc2cnn(-c3ccc(-c4ccccc4)cc3)c2-c2ccccc2)no1 [(181), (1-Biphenyl-4-yl-5-phenyl-1H-pyrazol-4-ylmethyl)-(5-methylisoxazol-3-ylmethyl)amine]
1200 nM	Fc1ccc(-c2ccc(-n3ncc(CNc4cnccn4)c3-c3ccccc3F)cn2)cc1 [(196), {5-(2-Fluorophenyl)-1-[6-(4-fluorophenyl)pyridin-3-yl]-1H-pyrazol-4-ylmethyl}pyrazin-2-ylamine]
100 nM	O=C(CNCc1cnn(-c2ccc(-c3ccccc3)cc2)c1-c1ccccc1F)Nc1ccc([N+](=O)[O-])cc1 [(129), 2-{[1-Biphenyl-4-yl-5-(2-fluorophenyl)-1H-pyrazol-4-ylmethyl]-amino}-N-(4-nitrophenyl)acetamide]
620 nM	Fc1ccccc1-c1c(CN2CCOCC2)cnn1-c1ccc(-c2cccs2)cc1 [(62), 4-[5-(2-Fluorophenyl)-1-(4-thiophen-2-ylphenyl)-1H-pyrazol-4-ylmethyl]morpholine]

Second part, the molecule before the results:

Structure (SMILES)	IC50
OCCN1CCN(Cc2cnn(-c3ccc(-c4ccccc4)cc3)c2-c2ccccc2F)CC1 [(79), 2-{4-[1-Biphenyl-4-yl-5-(2-fluorophenyl)-1H-pyrazol-4-ylmethyl]piperazin-1-yl}ethanol]	280 nM
CN1CCN(Cc2cnn(-c3ccc(-c4ccsc4)cc3)c2-c2ccco2)CC1 [(70), 1-[5-Furan-2-yl-1-(4-thiophen-3-ylphenyl)-1H-pyrazol-4-ylmethyl]-4-methylpiperazine]	4.5 nM
CN1CCN(Cc2cnn(-c3ccc(-c4ccc(F)cc4)cc3)c2-c2ccc(F)cc2)CC1 [(100), 1-[1-(4′-Fluorobiphenyl-4-yl)-5-(4-fluorophenyl)-1H-pyrazol-4-ylmethyl]-4-methylpiperazine]	25 nM
O=S1(=O)CCN(Cc2cnn(-c3ccc(-c4ccccc4)cc3)c2-c2ccccc2F)CC1 [(108), 4-[1-Biphenyl-4-yl-5-(2-fluorophenyl)-1H-pyrazol-4-ylmethyl]-thiomorpholine 1,1-dioxide]	43 nM
Fc1ccccc1-c1ccc(-n2ncc(CN3CCOCC3)c2-c2ccccc2F)cn1 [(146), 4-{5-(2-Fluorophenyl)-1-[6-(2-fluorophenyl)pyridin-3-yl]-1H-pyrazol-4-ylmethyl}morpholine]	600 nM
Fc1ccccc1-c1c(CN2CC3CC2CO3)cnn1-c1ccc(-c2ccccc2)cc1 (centres unmarked) [(82), 5-[1-Biphenyl-4-yl-5-(2-fluorophenyl)-1H-pyrazol-4-ylmethyl]-2-oxa-5-azabicyclo[2.2.1]heptane]	160 nM
COCCNCc1cnn(-c2ccc(-c3ccccc3)cc2)c1-c1ccccc1F [(78), [1-Biphenyl-4-yl-5-(2-fluorophenyl)-1H-pyrazol-4-ylmethyl]-(2-methoxyethyl)amine]	16 nM
Fc1ccccc1-c1c(CN2CCN3CCc4ccccc4C3C2)cnn1-c1ccc(-c2ccccc2)cc1 (centres unmarked) [(27), 2-[1-Biphenyl-4-yl-5-(2-fluorophenyl)-1H-pyrazol-4-ylmethyl]-1,3,4,6,7,11b-hexahydro-2H-pyrazino[2,1-a]-isoquinoline]	280 nM
CN1CCN(Cc2cnn(-c3ccc(-c4ccc(F)cc4)cc3)c2-c2ccccc2)CC1 [(97), 1-[1-(4′-Fluorobiphenyl-4-yl)-5-phenyl-1H-pyrazol-4-ylmethyl]-4-methylpiperazine]	13 nM
CN(C)CCN(C)Cc1cnn(-c2ccc(-c3ccc(F)cc3)nc2)c1-c1ccccc1F [(141), N-{5-(2-fluorophenyl)-1-[6-(4-fluorophenyl)pyridin-3-yl]-1H-pyrazol-4-ylmethyl}-N,N′,N′-trimethylethane-1,2-diamine]	140 nM
CS(=O)(=O)N1CCN(Cc2cnn(-c3ccc(-c4ccccc4)cc3)c2-c2ccccc2F)CC1 [(123), 1-[1-Biphenyl-4-yl-5-(2-fluorophenyl)-1H-pyrazol-4-ylmethyl]-4-methanesulfonylpiperazine]	830 nM
Fc1ccccc1-c1c(CNC2CCN(Cc3ccccc3)C2)cnn1-c1ccc(-c2ccccc2)cc1 (centres unmarked) [(161), (1-Benzylpyrrolidin-3-yl)-[1-biphenyl-4-yl-5-(2-fluorophenyl)-1H-pyrazol-4-ylmethyl]amine]	310 nM
